# According to US4798897A, “Isoquinoline derivatives” (Asahi Kasei Kogyo Kabushiki Kaisha, priority 1987, dated 1989):
# Test system: mesenteric artery
# Assay: Relaxation of mesenteric artery (KCl-contracted)
# Details: Oryctolagus cuniculus; rabbit mesenteric artery contracted with 15 to 20 mM KCl; read-out: ED50 (concentration attaining 50% of complete relaxation)
# Protocol: 1. Relaxation of Mesenteric Artery
# A rabbit of Japanese local variety weighing about 3 kg was bled to death. Then, the abdomen of the rabbit was dissected to locate a mesenteric artery. […] Thus, shrinking and relaxation of the artery could be measured as a load on the transducer. To the organ bath, KCl was added so that the KCl concentration became 15 to 20 mM, causing the artery to shrink. Then, the compounds of the present invention were added to the organ bath to observe relaxation of the artery.
# The effect of the compounds of the present invention on relaxation of mesenteric artery was examined according to the method as mentioned hereinbefore.
row,EC50 [µM],Structure (SMILES)
1,12,"CCCNC1CCN(S(=O)(=O)c2cccc3c(O)nccc23)CC1 [Compound (81), 1-(1-hydroxy-5-isoquinolinesulfonyl)-4-propylaminopiperidine]"
2,12,"O=S(=O)(c1cccc2cnccc12)N(CCNCc1ccccc1)Cc1ccccc1 [Compound (30), N-(2-benzylaminoethyl)-N-benzyl-5-isoquinolinesulfonamide]"
3,15,"NC1CCN(S(=O)(=O)c2cccc3c(O)nccc23)CC1 [Compound (79), 1-(1-hydroxy-5-isoquinolinesulfonyl)-4-aminopiperidine]"
4,14,"CCCN(C(C)CCCNCc1ccccc1)S(=O)(=O)c1cccc2cnccc12 (centres unmarked) [Compound (40), N-(4-benzylamino-1-methylbutyl)-N-propyl-5-isoquinolinesulfonamide]"
5,8,"O=S(=O)(c1cccc2cnccc12)N1CCCC(NCc2ccccc2)C1 (centres unmarked) [Compound (69), 1-(5-isoquinolinesulfonyl)-3-benzylaminopiperidine]"
6,9,"CCCCCCNCCN(CCCCCC)S(=O)(=O)c1cccc2cnccc12 [Compound (29), N-(2-hexylaminoethyl)-N-hexyl-5-isoquinolinesulfonamide]"
7,14,"CCCCNC1CCN(S(=O)(=O)c2cccc3cnccc23)CC1 [Compound (56), 1-(5-isoquinolinesulfonyl)-4-butylaminopiperidine]"
8,5,"CN(CCN)S(=O)(=O)c1cccc2cnccc12 [Compound (1), N-(2-aminoethyl)-N-methyl-5-isoquinolinesulfonamide]"
9,10,"CCCCN(CCNCCc1ccccc1)S(=O)(=O)c1cccc2cnccc12 [Compound (31), N-butyl-N-(2-phenylethylaminoethyl)-5-isoquinolinesulfonamide]"
10,7,"CCCCCCCCC(N)CN(CCCCCC)S(=O)(=O)c1cccc2cnccc12 (centres unmarked) [Compound (15), N-(2-aminodecyl)-N-hexyl-5-isoquinolinesulfonamide]"
11,20,"O=S(=O)(c1cccc2c(O)nccc12)N1CCCC(Nc2ccccc2)C1 (centres unmarked) [Compound (87), 1-(1-hydroxy-5-isoquinolinesulfonyl)-3-phenylaminopiperidine]"
12,14,"O=S(=O)(c1cccc2c(Cl)nccc12)N1CCC(NCc2ccccc2)CC1 [Compound (95), 1-(1-chloro-5-isoquinolinesulfonyl)-4-benzylaminopiperidine]"
13,15,"CCNC1CCCN(S(=O)(=O)c2cccc3c(Cl)nccc23)C1 (centres unmarked) [Compound (97), 1-(1-chloro-5-isoquinolinesulfonyl)-3-ethylaminopiperidine]"
14,7,"O=S(=O)(c1cccc2cnccc12)N1CCCC(NCCc2ccccc2)C1 (centres unmarked) [Compound (70), 1-(5-isoquinolinesulfonyl)-3-phenethylaminopiperidine]"
15,18,"CNC1CCN(S(=O)(=O)c2cccc3c(Cl)nccc23)CC1 [Compound (94), 1-(1-chloro-5-isoquinolinesulfonyl)-4-methylaminopiperidine]"
16,12,"CCCCCCNC1CCCN(S(=O)(=O)c2cccc3c(O)nccc23)C1 (centres unmarked) [Compound (88), 1-(1-hydroxy-5-isoquinolinesulfonyl)-3-hexylaminopiperidine]"
17,5,"CCCNC1CCCN(S(=O)(=O)c2cccc3cnccc23)C1 (centres unmarked) [Compound (66), 1-(5-isoquinolinesulfonyl)-3-propylaminopiperidine]"
18,8,"CCCCCCC(CN(CCCC)S(=O)(=O)c1cccc2cnccc12)NCCC (centres unmarked) [Compound (38), N-(2-propylaminoocytyl)-N-butyl-5-isoquinolinesulfonamide]"
19,20,"CC1CCN(S(=O)(=O)c2cccc3cnccc23)CC1N (centres unmarked) [Compound (75), 1-(5-isoquinolinesulfonyl)-3-amino-4-methylpiperidine]"
20,21,"CCN(CCCCC(C)CN)S(=O)(=O)c1cccc2cnccc12 (centres unmarked) [Compound (22), N-(5-aminomethylhexyl)-N-ethyl-5-isoquinolinesulfonamide]"

# Test system: bronchial tubes
# Assay: Inhibition of histamine contraction of bronchial tubes (relaxation of bronchial tubes)
# Details: Cavia porcellus; guinea pig bronchial tube, 10 μM histamine; Table 16; read-out: ED50 (50% decrease of histamine contraction of bronchial tubes)
# Protocol: 3. Inhibition of Histamine Contraction of Bronchial Tubes (Relaxation of Bronchial Tubes)
# That is, a bronchial tube sample taken from a guinea pig was suspended in the 20-ml bath filled with Krebs-Henseleit nutrient solution and maintained at a temperature of 37° C. To the bath was added histamine so that the histamine concentration became 10 μM, causing the bronchial tube sample to contract. After the contraction became stable, the compounds of the present invention were added cumulatively to the bath to observe relaxation of the bronchial tube sample.
# The effect of the compounds of the present invention on relaxation of bronchial tubes was examined according to the method as mentioned hereinbefore.
row,EC50 [µM],Structure (SMILES)
1,14,"CCCNC1CCN(S(=O)(=O)c2cccc3c(O)nccc23)CC1 [Compound (81), 1-(1-hydroxy-5-isoquinolinesulfonyl)-4-propylaminopiperidine]"
2,12,"O=S(=O)(c1cccc2cnccc12)N(CCNCc1ccccc1)Cc1ccccc1 [Compound (30), N-(2-benzylaminoethyl)-N-benzyl-5-isoquinolinesulfonamide]"
3,13,"NC1CCN(S(=O)(=O)c2cccc3c(O)nccc23)CC1 [Compound (79), 1-(1-hydroxy-5-isoquinolinesulfonyl)-4-aminopiperidine]"
4,22,"CCCN(C(C)CCCNCc1ccccc1)S(=O)(=O)c1cccc2cnccc12 (centres unmarked) [Compound (40), N-(4-benzylamino-1-methylbutyl)-N-propyl-5-isoquinolinesulfonamide]"
5,14,"O=S(=O)(c1cccc2cnccc12)N1CCCC(NCc2ccccc2)C1 (centres unmarked) [Compound (69), 1-(5-isoquinolinesulfonyl)-3-benzylaminopiperidine]"
6,10,"CCCCCCNCCN(CCCCCC)S(=O)(=O)c1cccc2cnccc12 [Compound (29), N-(2-hexylaminoethyl)-N-hexyl-5-isoquinolinesulfonamide]"
7,10,"CCCCNC1CCN(S(=O)(=O)c2cccc3cnccc23)CC1 [Compound (56), 1-(5-isoquinolinesulfonyl)-4-butylaminopiperidine]"
8,8,"CN(CCN)S(=O)(=O)c1cccc2cnccc12 [Compound (1), N-(2-aminoethyl)-N-methyl-5-isoquinolinesulfonamide]"
9,15,"CCCCN(CCNCCc1ccccc1)S(=O)(=O)c1cccc2cnccc12 [Compound (31), N-butyl-N-(2-phenylethylaminoethyl)-5-isoquinolinesulfonamide]"
10,25,"CCCCCCCCC(N)CN(CCCCCC)S(=O)(=O)c1cccc2cnccc12 (centres unmarked) [Compound (15), N-(2-aminodecyl)-N-hexyl-5-isoquinolinesulfonamide]"
11,15,"O=S(=O)(c1cccc2c(O)nccc12)N1CCCC(Nc2ccccc2)C1 (centres unmarked) [Compound (87), 1-(1-hydroxy-5-isoquinolinesulfonyl)-3-phenylaminopiperidine]"
12,18,"O=S(=O)(c1cccc2c(Cl)nccc12)N1CCC(NCc2ccccc2)CC1 [Compound (95), 1-(1-chloro-5-isoquinolinesulfonyl)-4-benzylaminopiperidine]"
13,10,"CCNC1CCCN(S(=O)(=O)c2cccc3c(Cl)nccc23)C1 (centres unmarked) [Compound (97), 1-(1-chloro-5-isoquinolinesulfonyl)-3-ethylaminopiperidine]"
14,13,"O=S(=O)(c1cccc2cnccc12)N1CCCC(NCCc2ccccc2)C1 (centres unmarked) [Compound (70), 1-(5-isoquinolinesulfonyl)-3-phenethylaminopiperidine]"
15,22,"CNC1CCN(S(=O)(=O)c2cccc3c(Cl)nccc23)CC1 [Compound (94), 1-(1-chloro-5-isoquinolinesulfonyl)-4-methylaminopiperidine]"
16,9,"CCCCCCNC1CCCN(S(=O)(=O)c2cccc3c(O)nccc23)C1 (centres unmarked) [Compound (88), 1-(1-hydroxy-5-isoquinolinesulfonyl)-3-hexylaminopiperidine]"
17,8,"CCCNC1CCCN(S(=O)(=O)c2cccc3cnccc23)C1 (centres unmarked) [Compound (66), 1-(5-isoquinolinesulfonyl)-3-propylaminopiperidine]"
18,23,"CCCCCCC(CN(CCCC)S(=O)(=O)c1cccc2cnccc12)NCCC (centres unmarked) [Compound (38), N-(2-propylaminoocytyl)-N-butyl-5-isoquinolinesulfonamide]"
19,16,"CC1CCN(S(=O)(=O)c2cccc3cnccc23)CC1N (centres unmarked) [Compound (75), 1-(5-isoquinolinesulfonyl)-3-amino-4-methylpiperidine]"
20,15,"CCCCCCN(C(C)CN(CC)CC)S(=O)(=O)c1cccc2cnccc12 (centres unmarked) [Compound (49), N-(2-diethylamino-1-methylethyl)-N-hexyl-5-isoquinolinesulfonamide]"
21,20,"CCN(CCCCC(C)CN)S(=O)(=O)c1cccc2cnccc12 (centres unmarked) [Compound (22), N-(5-aminomethylhexyl)-N-ethyl-5-isoquinolinesulfonamide]"
